Assay results published in patent US20250262336A1, “[177LU] LUTETIUM-PSMA I&T COMPOSITION AND DOSIMETRY, KIT, METHOD OF MAKING, AND METHOD OF USING THEREOF” (Curium US LLC, priority 2023, published 2025).

Experiment: Cycle 3 plasma PK modelling
Assay type: in vivo, human
Conditions: n = 15
Method: Whole blood samples were collected as detailed in the protocol Schedule of Events i.e. pre-injection, and then at 1 h, 4 h, 24 h, 48 h, and 168 h post-injection. The samples were first centrifuged to separate plasma, and the radioactivity in the plasma was then measured using a gamma counter. Plasma concentrations were subsequently fitted with a bi-exponential function to derive outcome parameters such as the half-life and clearance rate of the radiopharmaceutical in the plasma.
Blood samples were obtained for 15 out of 16 patients at cycle 3. Patients 12-004 had blood taken only at the 24 h timepoint and, therefore, was not included in the plasma PK analysis. Consistent with Cycle 1, the time-course of plasma concentrations was similar among the patients. The ranges of PK parameters obtained at cycle 3 were similar to those from Cycle 1 data (Tables 9A and 9B).
Blood samples were obtained for 15 out of 16 patients at cycle 3. Patients 12-004 had blood taken only at the 24 h timepoint and, therefore, was not included in the plasma PK analysis. Consistent with Cycle 1, the time-course of plasma concentrations was similar among the patients. The ranges of PK parameters obtained at cycle 3 were similar to those from Cycle 1 data (Table 29). See Table 29) Cycle 3 PK plasma modeling results (n15)

With `O=C(O)CC[C@H](NC(=O)N[C@@H](CCCCNC(=O)CCCCCCC(=O)NCCCC[C@@H](NC(=O)[C@@H](Cc1ccccc1)NC(=O)[C@@H](Cc1ccc(O)c(I)c1)NC(=O)CC[C@H](C(=O)O)N1CCN(CC(=O)O)CCN(CC(=O)O)CCN(CC(=O)O)CC1)C(=O)O)C(=O)O)C(=O)O` [^177Lu-PSMA-I&T, (3S,7 S,26R,29R,32R,37R)-29-benzyl-32-(4-hydroxy-3-iodobenzyl)-5,13,20,28,31,34-hexaoxo-37-(4,7,10-tris(carboxymethyl)-1,4,7,10-tetraazacyclododecan-1-yl)-4,6,12,21,27,30,33-heptaazaheptatriacontane-1,3,7,26,37-pentacarboxylic acid; lutetium-177 (III), metal not drawn] the “AUC Total, Mean” value was 25.58 fIA/L × min, the “AUC Total, max” value was 39.62 fIA/L × min and the “AUC Total, median” value was 24.55 fIA/L × min. For the same molecule, the “AUC Total, min” value was 13.86 fIA/L × min, the “Peak Concentration Value, Mean” value was 0.05 fIA/L and the “Peak Concentration Value, max” value was 0.07 fIA/L. For the same molecule, the “Peak Concentration Value, median” value was 0.04 fIA/L, the “Peak Concentration Value, min” value was 0.03 fIA/L and the “Time of Peak Concentration” value was 55.00 min. For the same molecule, the “Time of Peak Concentration, Mean” value was 60.67 min, the “Time of Peak Concentration, max” value was 68.00 min and the “Time of Peak Concentration, median” value was 60.00 min. The “Vc, Mean” value was 16.40 L, the “Vc, max” value was 24.53 L and the “Vc, median” value was 16.42 L. The “Vc, min” value was 10.66 L.
